Here are results for six compounds from ChEMBL document CHEMBL1921754, “Sodium dl-α-tocopheryl-6-O-phosphate inhibits PGE₂ production in keratinocytes induced by UVB, IL-1β and peroxidants” (Bioorg Med Chem, 2011).

Active and inactive are the calls of the source. The rule behind the calls is not given here.

The inhibition is the share of the control response that was lost under treatment.

The nature of data set [1]: Protection against UVB irradiation-induced cell damage in NHEK assessed as inhibition of PGE2 production at 2 uM pretreated for 24 hrs before UVB irradiation measured after 24 hrs by enzymatic immunoassay. The following applies: Homo sapiens, light or radiation study. In kind it is functional.
The next data set has as its system Keratinocyte. The experiment in a line: Protection against UVB irradiation-induced SV40-transformed human keratinocytes damage assessed as inhibition of PGE2 production at 30 uM pretreated for 24 hrs before UVB irradiation measured after 24 hrs by ELISA. It counts as functional, cell-based. Background: In an ELISA, binding on a coated surface is turned into a signal by an enzyme label.

The species entered for data set [2] is Homo sapiens. Nature of the data set: Protection against H2O2-induced cell damage in NHEK assessed as inhibition of PGE2 production at 0.5 to 2 uM after 24 hrs by enzymatic immunoassay. In kind it is functional.
Data set [3] can be described thus: Protection against IL1-beta-induced cell damage in NHEK assessed as inhibition of PGE2 production at 0.5 uM pretreated for 24 hrs before IL1-beta challenge measured after 24 hrs by enzymatic immunoassay. In kind it is functional. The following applies: Homo sapiens.
A short description of data set [4]: Protection against IL1-beta-induced cell damage in NHEK assessed as inhibition of PGE2 production at 0.1 uM pretreated for 24 hrs before IL1-beta challenge measured after 24 hrs by enzymatic immunoassay. In kind it is functional. The following applies: Homo sapiens.
Data set [5] is described as follows: (§1) Protection against t-BHP-induced cell damage in NHEK assessed as inhibition of PGE2 production at 2 uM pretreated for 24 hrs before t-BHP challenge measured after 24 hrs by enzymatic immunoassay. It counts as functional. The following applies: Homo sapiens.
Data set [6] is described as follows: Protection against H2O2-induced cell damage in NHEK assessed as inhibition of PGE2 production at 2 uM pretreated for 24 hrs before H2O2 challenge measured after 24 hrs by enzymatic immunoassay. It counts as functional. The settings on record: Homo sapiens.
Another data set deals with Zone of skin. Nature of the data set: Prodrug conversion in 3D restructured human skin model assessed as conversion of compound to dl-alpha-tocopherol at 2% after 4 hrs by HPLC analysis. In kind it is ADME, tissue-based.
A short description of data set [7]: Protection against IL1-beta-induced cell damage in NHEK assessed as inhibition of PGE2 production at 2 uM pretreated for 24 hrs before IL1-beta challenge measured after 24 hrs by enzymatic immunoassay. In kind it is functional. The settings on record: Homo sapiens.
Data set [8] is filed under the species Homo sapiens. The data set is described as §1. It counts as functional.
Data set [9] can be described thus: Protection against H2O2-induced cell damage in NHEK assessed as inhibition of PGE2 production at 0.5 to 2 uM pretreated for 24 hrs before H2O2 challenge measured after 24 hrs by enzymatic immunoassay. It counts as functional, Homo sapiens.

`Cc1ccc(S(=O)(=O)/C=C/C#N)cc1`: the inhibition at 2 µM in data set [1] worked out at 9%.

`O=C1O[C@H]([C@@H](O)CO)C(O)=C1OP(=O)(O)O`: the inhibition entry in the data set with Keratinocyte is “inactive”.

Consider `CC(=O)Oc1c(C)c(C)c2c(c1C)CC[C@@](C)(CCC[C@H](C)CCC[C@H](C)CCCC(C)C)O2` (racemic), for which, in the data set filed under Homo sapiens [2], the inhibition entry is “inactive”. The inhibition at 0.5 µM in data set [3] is 40%. The inhibition at 0.1 µM in [4] is 38%. The results for the inhibition at 2 µM in data set [5], in data set [6] and in data set [7] were 77.4%, 25% and 67%, respectively. For the same compound, the Drug metabolism entry in the data set on Zone of skin is recorded as “Active”.

Turning to `CC1(C)[C@@H](O[C@H]2O[C@H](C(=O)[O-])[C@@H](O)[C@H](O)[C@H]2O[C@@H]2O[C@H](C(=O)[O-])[C@@H](O)[C@H](O)[C@H]2O)CC[C@]2(C)[C@H]3C(=O)C=C4[C@@H]5C[C@@](C)(C(=O)O)CC[C@]5(C)CC[C@@]4(C)[C@]3(C)CC[C@@H]12.[K+].[K+]` [GLYCYRRHIZINATE DIPOTASSIUM], the inhibition entry in the data set filed under Homo sapiens [2] and in the data set filed under Homo sapiens [8] was “inactive” in each case. Also, the inhibition at 0.5 µM in data set [3] is 14%. For the same compound, the “inhibition (INH)” value in data set [9] is 40%. Moreover, the inhibition at 2 µM in data set [7] amounted to 24%.

Turning to `C[S+]([O-])c1ccc(-c2nc(-c3ccc(F)cc3)c(-c3ccncc3)[nH]2)cc1` (stereo unspecified) [SB-203580], the inhibition at 2 µM in data set [1] was determined as 73%.

Turning to `Oc1c2ccccc2c2c3c(cccc13)N=N2` [SP-600125], in [1], the inhibition at 2 µM was 33%.
